# Legend:
# [1] = system: CHO cells; experiment: FD-based AFM with virus-functionalized tip on living CHO cells (cocultured with Lec2); assay type: cell-based; details: 1 mM, same area rescanned, FIG. 14i-l
# Procedure: NHS-PEG27-acetal linkers were used to functionalize AFM tips as described (Gruber. Crosslinkers and Protocols for AFM Tip Functionalization. https://wwwjku.at/institut-fuer-biophysik/forschung/linked, 2018; Wildling et al. Linking of sensor molecules with amino groups to aminofunctionalized AFM tips. Bioconjug. Chem. 2011, vol. 22, 1239-1248). AFM tips (PFQNM-LC and MSCT probes, Bruker) were immersed in chloroform for 10 min, rinsed with ethanol, dried with a stream of filtered nitrogen, cleaned for 10 min using an ultraviolet radiation and ozone (UV-0) cleaner (Jetlight), and immersed overnight in an ethanolamine solution (3.3 g of ethanolamine hydrochloride in 6.6 mL of DMSO). […]
# Correlative images were acquired on an AFM (Bioscope Catalyst and Bioscope Resolve, Bruker) operated in the PeakForce QNM mode (Nanoscope software v9.2) to conduct FD-based AFM and coupled to an inverted epifluorescence microscope (Zeiss Observer Z.1) as described (Newton et al. 2017, supra; Knoops et al. Specific Interactions Measured by AFM on Living Cells between Peroxiredoxin-5 and TLR4: Relevance for Mechanisms of Innate Immunity. Cell chemical biology 2018, vol. 25, 550-559, e553). […] Overview images of cell surfaces (20-30 μm^2) were recorded at imaging forces of ˜500 pN using PFQNM-LC probes (Bruker) having tip lengths of 17 μm, tip radii of 65 nm, and opening angles of 15°. […]
# [2] = system: JAM-A; experiment: Biolayer interferometry (BLI) of JAM-A-reovirus interactions; assay type: binding; details: 1 mM free glycan
# Procedure: Virus binding to JAM-A was measured on a BLItz® (Pall ForteBio) biolayer interferometer equipped with a Ni2+-NTA biosensor (Pall ForteBio). After loading the chip in a 10 mM NiCl2 solution for 2 min and running an initial baseline step in milliQ water (1 min), JAM-A (0.2 mg mL^−1) was immobilized on the exposed Ni^2+ ions via its C-terminal His6 tag for 5 min until the binding signal reached a plateau (complete saturation of the biosensor). Binding of viral particles (T3SA+, T3SA− or ISVP; at 16 nM) in the absence or presence of 1 mM Neu5Ac was measured during a 10 min association step after another baseline step (virus buffer for 1 min). Dissociation was monitored directly after the association step for 10 min during which the virus solution was exchanged with virus buffer. Chip can be regenerated several times by exposing the biosensor to 10 mM Glycine pH 1.7 followed by a neutralization buffer (Kinetics Buffer). The resulting sensorgram (binding over time) was processed and fitted with a nonlinear regression approach using an association and then dissociation fit provided by GraphPad Prism. Virus concentration and time at which dissociation was initiated were constrained to constant values of 16 nM and 17 min, respectively. From that fit, koff and kon were extracted and KD was calculated.
smiles,measurement,setting,value
"CC(=O)N[C@H]1[C@H]([C@H](O)[C@H](O)CO)OC(O)(C(=O)O)C[C@@H]1O (some centres unmarked) [Neu5Ac, N-acetylneuraminic acid]",adhesion events of T3SA+ after injection of blocking glycan,[1],significant reduction of adhesion events
same,influence on T3SA− binding to JAM-A,[2],had no influence

# From patent US20220111034A1, “VIRUS COMPOSITIONS” (priority 2019, published 2022)
